Assay results from ChEMBL document CHEMBL3885881, “DrugMatrix”.

Species: Rattus norvegicus
Assay: DrugMatrix - Regimen: Daily Repeat
Format: toxicity, organism-based, Sprague-Dawley
Design: regimen Daily Repeat, gender Male, age 6-8 weeks
Conditions: in vivo, po, route oral GAVAGE, vehicle 100 % WATER; for ABSOLUTE BASOPHIL / ABSOLUTE EOSINOPHIL / ABSOLUTE LYMPHOCYTE / ABSOLUTE MONOCYTE / ABSOLUTE SEGMENTED NEUTROPHIL / BASOPHIL / EOSINOPHIL / ERYTHROCYTE COUNT / HEMATOCRIT / HEMOGLOBIN / LEUKOCYTE COUNT / LYMPHOCYTE / MEAN CORPUSCULAR HEMOGLOBIN / MEAN CORPUSCULAR HEMOGLOBIN CONCENTRATION / MEAN CORPUSCULAR VOLUME / MONOCYTE / NEUTROPHIL / NUCLEATED RED BLOOD CELLS / PLATELET COUNT: tissue Blood; for ALANINE AMINOTRANSFERASE / ALBUMIN / ALKALINE PHOSPHATASE / ASPARTATE AMINOTRANSFERASE / BLOOD UREA NITROGEN / CARBON DIOXIDE / CHLORIDE / CHOLESTEROL / CREATINE PHOSPHOKINASE / CREATININE / GLUCOSE / LACTATE DEHYDROGENASE / LIPASE / PHOSPHORUS / POTASSIUM / SODIUM / TOTAL BILIRUBIN / TOTAL PROTEIN / URIC ACID: tissue Plasma
[1] = 5 mg/kg, 120 h, dose level Low, time 5 day
[2] = 15 mg/kg, 72 h, dose level High, time 3 day
[3] = 15 mg/kg, 120 h, dose level High, time 5 day

C[N+](C)(C)CCOC(N)=O.[Cl-] [CARBACHOL]
ABSOLUTE BASOPHIL [1]: 0 CELLS/uL | ABSOLUTE EOSINOPHIL [1]: 0 CELLS/uL | ABSOLUTE LYMPHOCYTE [1]: 11606.67 CELLS/uL | ABSOLUTE MONOCYTE [1]: 117 CELLS/uL | ABSOLUTE SEGMENTED NEUTROPHIL [1]: 1076.33 CELLS/uL | BASOPHIL [1]: 0% | EOSINOPHIL [1]: 0% | ERYTHROCYTE COUNT [1]: 5.68 x10E6/uL | HEMATOCRIT [1]: 35.2% | HEMOGLOBIN [1]: 13.47 G/DL | LEUKOCYTE COUNT [1]: 12.8 x10E3/uL | LYMPHOCYTE [1]: 90.33% | MEAN CORPUSCULAR HEMOGLOBIN [1]: 23.7 pg | MEAN CORPUSCULAR HEMOGLOBIN CONCENTRATION [1]: 38.27 G/DL | MEAN CORPUSCULAR VOLUME [1]: 62 fL | MONOCYTE [1]: 1% | NEUTROPHIL [1]: 8.67% | NUCLEATED RED BLOOD CELLS [1]: 0 /100WBC | PLATELET COUNT [1]: 1163.67 x10E3/uL | ALANINE AMINOTRANSFERASE [1]: 62.33 u/L | ALBUMIN [1]: 3.97 G/DL | ALKALINE PHOSPHATASE [1]: 368 u/L | ASPARTATE AMINOTRANSFERASE [1]: 96.33 u/L | BLOOD UREA NITROGEN [1]: 14.67 mg/dL | CARBON DIOXIDE [1]: 33.33 mmol/L | CHLORIDE [1]: 99.33 MEQ/L | CHOLESTEROL [1]: 68.33 mg/dL | CREATINE PHOSPHOKINASE [1]: 498.67 u/L | CREATININE [1]: 0.15 mg/dL | GLUCOSE [1]: 136.67 mg/dL | LACTATE DEHYDROGENASE [1]: 139.33 u/L | LIPASE [1]: 8.67 u/L | PHOSPHORUS [1]: 10.83 mg/dL | POTASSIUM [1]: 5.88 MEQ/L | SODIUM [1]: 143.33 MEQ/L | TOTAL BILIRUBIN [1]: 0.2 mg/dL | TOTAL PROTEIN [1]: 5.77 G/DL | URIC ACID [1]: 0.63 mg/dL | ABSOLUTE BASOPHIL [2]: 0 CELLS/uL | ABSOLUTE EOSINOPHIL [2]: 0 CELLS/uL | ABSOLUTE LYMPHOCYTE [2]: 9349.33 CELLS/uL | ABSOLUTE MONOCYTE [2]: 72.33 CELLS/uL | ABSOLUTE SEGMENTED NEUTROPHIL [2]: 311.67 CELLS/uL | BASOPHIL [2]: 0% | EOSINOPHIL [2]: 0% | ERYTHROCYTE COUNT [2]: 5.27 x10E6/uL | HEMATOCRIT [2]: 33.67% | HEMOGLOBIN [2]: 12.87 G/DL | LEUKOCYTE COUNT [2]: 9.73 x10E3/uL | LYMPHOCYTE [2]: 95.67% | MEAN CORPUSCULAR HEMOGLOBIN [2]: 24.4 pg | MEAN CORPUSCULAR HEMOGLOBIN CONCENTRATION [2]: 38.23 G/DL | MEAN CORPUSCULAR VOLUME [2]: 63.83 fL | MONOCYTE [2]: 0.67% | NEUTROPHIL [2]: 3.67% | NUCLEATED RED BLOOD CELLS [2]: 0 /100WBC | PLATELET COUNT [2]: 1174 x10E3/uL | ALANINE AMINOTRANSFERASE [2]: 42.33 u/L | ALBUMIN [2]: 3.9 G/DL | ALKALINE PHOSPHATASE [2]: 336.33 u/L | ASPARTATE AMINOTRANSFERASE [2]: 77 u/L | BLOOD UREA NITROGEN [2]: 11.33 mg/dL | CARBON DIOXIDE [2]: 34 mmol/L | CHLORIDE [2]: 101 MEQ/L | CHOLESTEROL [2]: 72 mg/dL | CREATINE PHOSPHOKINASE [2]: 402.67 u/L | CREATININE [2]: 0.11 mg/dL | GLUCOSE [2]: 134.67 mg/dL | LACTATE DEHYDROGENASE [2]: 129.33 u/L | LIPASE [2]: 9 u/L | PHOSPHORUS [2]: 11.9 mg/dL | POTASSIUM [2]: 5.89 MEQ/L | SODIUM [2]: 146.47 MEQ/L | TOTAL BILIRUBIN [2]: 0.13 mg/dL | TOTAL PROTEIN [2]: 5.67 G/DL | URIC ACID [2]: 0.5 mg/dL | ABSOLUTE BASOPHIL [3]: 0 CELLS/uL | ABSOLUTE EOSINOPHIL [3]: 48 CELLS/uL | ABSOLUTE LYMPHOCYTE [3]: 6680.67 CELLS/uL | ABSOLUTE MONOCYTE [3]: 148.67 CELLS/uL | ABSOLUTE SEGMENTED NEUTROPHIL [3]: 722.67 CELLS/uL | BASOPHIL [3]: 0% | EOSINOPHIL [3]: 0.67% | ERYTHROCYTE COUNT [3]: 5.28 x10E6/uL | HEMATOCRIT [3]: 33.7% | HEMOGLOBIN [3]: 13.03 G/DL | LEUKOCYTE COUNT [3]: 7.6 x10E3/uL | LYMPHOCYTE [3]: 87.67% | MEAN CORPUSCULAR HEMOGLOBIN [3]: 24.73 pg | MEAN CORPUSCULAR HEMOGLOBIN CONCENTRATION [3]: 38.7 G/DL | MEAN CORPUSCULAR VOLUME [3]: 63.97 fL | MONOCYTE [3]: 2% | NEUTROPHIL [3]: 9.67% | NUCLEATED RED BLOOD CELLS [3]: 0 /100WBC | PLATELET COUNT [3]: 1083.67 x10E3/uL | ALANINE AMINOTRANSFERASE [3]: 53 u/L | ALBUMIN [3]: 3.73 G/DL | ALKALINE PHOSPHATASE [3]: 301 u/L | ASPARTATE AMINOTRANSFERASE [3]: 93 u/L | BLOOD UREA NITROGEN [3]: 15.67 mg/dL | CARBON DIOXIDE [3]: 30.67 mmol/L | CHLORIDE [3]: 101.67 MEQ/L | CHOLESTEROL [3]: 64 mg/dL | CREATINE PHOSPHOKINASE [3]: 243.33 u/L | CREATININE [3]: 0.18 mg/dL | GLUCOSE [3]: 145.67 mg/dL | LACTATE DEHYDROGENASE [3]: 116.33 u/L | LIPASE [3]: 11 u/L | PHOSPHORUS [3]: 10.67 mg/dL | POTASSIUM [3]: 5.44 MEQ/L | SODIUM [3]: 146.13 MEQ/L | TOTAL BILIRUBIN [3]: 0.1 mg/dL | TOTAL PROTEIN [3]: 5.47 G/DL | URIC ACID [3]: 0.57 mg/dL
